Laboratory results taken from patent US20040171680A1, “Treating Syndrome X with substituted tetralins and indanes” (priority 2002, published 2004).
Where two headings read alike, the source gives them in different places.

Experiments:
Assay type in all cases: cell-based
PPARα = biological target: T1, PPARα (Rattus norvegicus, UniProt P37230); experiment: HD bDNA Assay (HD gene induction)
T1 construct: H4IIE rat hepatoma cell line was obtained from ATCC; host or cells: H4IIE rat hepatoma cells
T1 sequence (P37230 1-468): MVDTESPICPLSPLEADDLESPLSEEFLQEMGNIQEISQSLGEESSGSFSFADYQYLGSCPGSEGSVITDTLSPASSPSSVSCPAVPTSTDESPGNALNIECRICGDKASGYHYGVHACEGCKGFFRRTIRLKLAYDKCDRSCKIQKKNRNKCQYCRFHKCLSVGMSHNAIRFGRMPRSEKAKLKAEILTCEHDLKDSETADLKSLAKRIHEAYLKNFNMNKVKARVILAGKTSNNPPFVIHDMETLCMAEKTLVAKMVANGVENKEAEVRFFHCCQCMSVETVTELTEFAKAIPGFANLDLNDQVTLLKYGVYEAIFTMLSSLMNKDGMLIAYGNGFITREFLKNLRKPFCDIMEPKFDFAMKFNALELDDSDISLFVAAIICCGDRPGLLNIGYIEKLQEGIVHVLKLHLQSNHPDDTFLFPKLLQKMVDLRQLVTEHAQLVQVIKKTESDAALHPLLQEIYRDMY
Description: HD bDNA Assay H4IIE rat hepatoma cell line was obtained from ATCC. Cells were cultured in 175 cm^2 tissue culture flask or seeded in 96-well plate with (high serum content, 10% fetal bovine serum and 10% calf serum) culture medium and maintained at 37° C. and 5% CO2 throughout study. Twenty-four hours after the initial seeding of the 96-well plate by hand (approximate 100,000/well), the HD gene induction assay was initiated. Media was removed and replaced with 100 ul of low serum culture media (5% charcoal/dextran treated calf serum) containing vehicle (DMSO) or test compounds or standard. Cells returned to incubator for 24 hours culture. At the termination of the challenge, 50 ul lysis buffer with HD gene specific CE, LE, BL probes was added directly into each well to initiate the bDNA HD mRNA assay. The branched DNA assay was performed according to the manufacturer's protocol (Bayer Diagnostics; Emeryville. Calif.). At the end of the assay, the luminescence was quantitated in Dynex MLX microtiter plate luminometer. EC50's were determined by non-linear regression with a sigmoidal fit utilizing Graphpad Prism.

PPARγ = biological target: T2, PPARγ (Homo sapiens, UniProt P37231); experiment: aP2 Assay for PPAR gamma Agonists (bDNA aP2 mRNA in preadipocytes); settings: fold induction; PPARγ standard: FI = 70.3
T2 construct: Following the challenge of the preadipocytes, cells may be lysed with lysis buffer; endogenous in cells; host or cells: preadipocytes
T2 sequence (P37231 1-505): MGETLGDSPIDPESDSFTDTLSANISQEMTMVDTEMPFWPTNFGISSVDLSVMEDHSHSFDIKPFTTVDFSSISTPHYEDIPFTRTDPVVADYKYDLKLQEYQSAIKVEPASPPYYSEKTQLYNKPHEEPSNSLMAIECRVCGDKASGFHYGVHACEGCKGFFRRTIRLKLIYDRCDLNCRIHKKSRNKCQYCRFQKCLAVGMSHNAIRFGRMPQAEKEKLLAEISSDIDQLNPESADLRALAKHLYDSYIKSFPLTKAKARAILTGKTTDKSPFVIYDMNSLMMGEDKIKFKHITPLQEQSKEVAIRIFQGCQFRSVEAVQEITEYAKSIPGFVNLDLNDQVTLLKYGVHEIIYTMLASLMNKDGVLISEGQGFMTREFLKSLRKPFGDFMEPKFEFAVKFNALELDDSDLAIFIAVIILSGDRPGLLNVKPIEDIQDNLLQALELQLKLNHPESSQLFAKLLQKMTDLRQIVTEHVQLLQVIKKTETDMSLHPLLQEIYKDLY
Source text: aP2 Assay for PPAR gamma Agonists
The procedure is described in detail in Burris et al., Molecular Endocrinology, 1999, 13:410, which is hereby incorporated by reference in its entirety, and aP2 assay results of agonist intrinsic activity may be presented as fold increase over vehicle in induction of aP2 mRNA production.
Twenty-four hours after the initial seeding of the 96-well plates by hand (around 20,000/well), the differentiation assay may be initiated. Medium may be removed and replaced with […] of differentiation medium containing vehicle (DMSO) or test compounds. Cells may be returned to incubator for 24 hours culture. At the termination of the challenge, medium may be removed and 100 ul of lysis buffer may be added to initiate the bDNA aP2 mRNA assay. The branched DNA assay may be performed according to the manufacturer's protocol (Bayer Diagnostics; Emeryville, Calif.). Result may be expressed as the fold increase of aP2 mRNA production activated over vehicle controls. EC50's and Emax may be determined by non-linear regression with a sigmoidal fit curve.
Following the challenge of the preadipocytes, cells may be lysed with lysis buffer (Bayer Diagnostics) containing the aP2 oligonucleotides. After a 15 minute incubation at 53° C. or 30 minutes at 37° C. incubator, 70 ul of the lysis buffer from each well may be added to a corresponding capture well (preincubated with 70 ul of blocking buffer (Bayer Diagnostics)). The capture plate may be incubated overnight at 53° C. in a plate incubator (Bayer Diagnostics). After this incubation, the bDNA and labeled probes may be annealed as directed by the manufacturer. Following a 30-minute incubation with the luminescent alkaline phosphatase substrate, dioxitane, the luminescence may be quantitated in a Dynex MLX microtiter plate luminometer. Oligonucleotide probes designed to anneal to the aP2 mRNA and function in the bDNA mRNA detection system are designed with ProbeDesigner software (Bayer Diagnostics). This software package analyzes a target sequence of interest with a series of algorithms in order to determine which regions of the sequence can perform as locations for capture, label, or spacer probe annealing. The sequences of the oligonucleotides are as follows: […]

PPARδ = biological target: T3, PPARδ (Homo sapiens, UniProt Q03181); experiment: Transfection Assay for PPARδ Receptors (PPAR-Gal4 / Gal4-Luciferase reporter in HEK293 cells); settings: for PPARδ FI: fold induction, PPARδ standard: FI = 36.1; for EC50: values in square brackets
T3 construct: a Gal4-Luciferase reporter is co-transfected
T3 sequence (Q03181 171-441 limits assumed): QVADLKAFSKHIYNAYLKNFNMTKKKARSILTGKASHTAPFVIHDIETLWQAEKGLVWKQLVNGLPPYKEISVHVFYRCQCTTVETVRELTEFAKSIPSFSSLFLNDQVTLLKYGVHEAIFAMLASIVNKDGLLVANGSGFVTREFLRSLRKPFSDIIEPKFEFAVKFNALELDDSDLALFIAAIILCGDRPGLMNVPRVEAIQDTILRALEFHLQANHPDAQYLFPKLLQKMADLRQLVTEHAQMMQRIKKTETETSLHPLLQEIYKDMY
Description: Transfection Assay for PPARδ Receptors
HEK293 cells were grown in DMEM/F-12 Media supplemented with 10% FBS and glutamine (GIBCOBRL). The cells were co-transfected with DNA for PPAR-Gal4 receptor and Gal4-Luciferase Reporter using the DMRIE-C Reagent. On the following day, the DNA-containing medium were replaced with 5% Charcoal treated FBS growth medium. After six hours, cells were seeded in 96 well plate and incubated at 37° C. in CO2 incubator overnight. Cells were challenged by test compounds and incubated for 24 hours at 37° C. in 5% CO2 incubator. Luciferase activity was assayed using the Steady-Glo Luciferase Assay Kit from Promega. DMRIE-C Reagent was purchased from GIBCO Cat. No.10459-014. OPTI-MEM I Reduced Serum Medium was purchased from GIBCO Cat. No. 31985. Steady-Glo Luciferase Assay Kit was obtained from Promega Part# E254B.

[1] = in section F, target not named there, values match the PPARα column, read-out: EC50
[2] = H4IIE rat hepatoma cells, 24 hours, read-out: PPARα EC50

SMILES | EC50 (PPARα; [1]) [nM] | PPARγ FI (PPARγ) | EC50 (PPARα; [2]) [nM] | PPARδ FI (PPARδ) | EC50 (PPARδ) [nM]
CCCCN(C(=O)Nc1ccc(SC(F)(F)F)cc1)C1Cc2ccc(SC(C)(C)C(=O)O)cc2C1 (centres unmarked) [Example 17, 2-Methyl-2-{2-[1-butyl-3-(4-trifluoromethylsulfanylphenyl)ureido]indan-5-ylsulfanyl}propionic acid] | 160 | 0.43 |  |  | 
CC(C)CCN(C(=O)Nc1ccc(C(C)C)cc1)C1Cc2ccc(SC(C)(C)C(=O)O)cc2C1 (centres unmarked) [Example 21, 2-{2-[3-(4-Isopropylphenyl)-1-(3-methylbutyl)ureido]indan-5-ylsulfanyl}-2-methylpropionic acid] | 106 | 0.05 |  |  | 
CCCCCCN(C(=O)Nc1ccc(SC(F)(F)F)cc1)C1Cc2ccc(SC(C)(C)C(=O)O)cc2C1 (centres unmarked) [Example 15, 2-Methyl-2-{2-[1-hexyl-3-(4-trifluoromethylsulfanylphenyl)ureido]indan-5-ylsulfanyl}propionic acid] | 123 |  |  | 1.2 | 
CCN(C(=O)Nc1cccc(OC(F)(F)F)c1)C1Cc2ccc(SC(C)(C)C(=O)O)cc2C1 (centres unmarked) [Example 26, 2-{2-[1-Ethyl-3-(3-trifluoromethoxyphenyl)ureido]indan-5-ylsulfanyl}-2-methylpropionic acid] |  |  | 130 | 2.1 | 
CC(C)(Sc1ccc2c(c1)CC(N(CCCC1CCCC1)C(=O)Nc1ccc(OC(F)(F)F)cc1)C2)C(=O)O (centres unmarked) [Example 28, 2-{2-[1-(3-Cyclopentylpropyl)-3-(4-trifluoromethoxyphenyl)ureido]indan-5-ylsulfanyl}-2-methylpropionic acid] |  |  | 323 | 8.2 | 
C=CCCCN(C(=O)Nc1ccc(OC(F)(F)F)cc1)C1Cc2ccc(SC(C)(C)C(=O)O)cc2C1 (centres unmarked) [Example 19, 2-Methy-2-{2-[1-pent-4-enyl-3-(4-trifluoromethoxyphenyl)ureido]indan-5-ylsulfanyl}propionic acid] | 125 |  |  | 1.4 | 
CCN(C(=O)Nc1ccc(OC(F)(F)F)cc1)C1CCc2cc(OC(C)(C)C(=O)O)ccc2C1 (centres unmarked) [Example 48, 2-{6-[1-Ethyl-3-(4-trifluoromethoxyphenyl)ureido]-5,6,7,8-tetrahydronaphthalen-2-yloxy}-2-methylpropionic acid] |  |  | 14 |  | > 3000
CCN(C(=O)Nc1ccc(OC(F)(F)F)c(Br)c1)C1Cc2ccc(SC(C)(C)C(=O)O)cc2C1 (centres unmarked) [Example 25, 2-{2-[3-(3-Bromo-4-trifluoromethoxyphenyl)-1-ethylureido]indan-5-ylsulfanyl}-2-methylpropionic acid] |  |  | 208 | 4.5 | 

Next, values leading:

EC50 (PPARα; [1]) [nM] | PPARγ FI (PPARγ) | EC50 (PPARα; [2]) [nM] | PPARδ FI (PPARδ) | EC50 (PPARδ) [nM] | SMILES
 |  | 1390 | 6.0 |  | CCCN(C(=O)Nc1ccc(OC(F)(F)F)cc1)C1CCc2ccc(SC(C)(C)C(=O)O)cc2C1 (centres unmarked) [Example 46, 2-Methyl-2-{7-[1-propyl-3-(4-trifluoromethoxyphenyl)ureido}-5,6,7,8-tetrahydronaphthalen-2-ylsulfanyl}propionic acid]
 |  | 1000 | 9.3 |  | CCCCCN(C(=O)Nc1ccc2ccccc2c1)C1Cc2ccc(SC(C)(C)C(=O)O)cc2C1 (centres unmarked) [Example 39, 2-Methyl-2-[2-(3-naphthalen-2-yl-1-pentylureido)indan-5-ylsulfanyl]propionic acid]
 |  | 497 | 1.5 |  | CCCN(C(=O)Nc1ccc(OC)cc1)C1Cc2ccc(SC(C)(C)C(=O)O)cc2C1 (centres unmarked) [Example 32, 2-{2-[3-(4-Methoxyphenyl)-1-propylureido]indan-5-ylsulfanyl}-2-methylpropionic acid]
 |  | 838 | 1.9 |  | CC(C)(Sc1ccc2c(c1)CC(N(CCCC1CCCC1)C(=O)Nc1ccccc1)C2)C(=O)O (centres unmarked) [Example 37, 2-{2-[1-(3-Cyclopentylpropyl)-3-phenylureido]indan-5-ylsulfanyl}-2-methylpropionic acid]
 |  | 772 | 5.6 |  | CCCN(C(=O)Nc1ccc(C(F)(F)F)cc1)C1Cc2ccc(SC(C)(C)C(=O)O)cc2C1 (centres unmarked) [Example 35, 2-Methyl-2-{2-[1-propyl-3-(4-trifluoromethylphenyl)ureido]indan-5-ylsulfanyl}-propionic acid]
17 |  |  |  | > 3000 | CCN(C(=O)Nc1ccc(OC(F)(F)F)cc1)C1CCc2cc(SC(C)(C)C(=O)O)c(Br)cc2C1 (centres unmarked) [Example 52, 2-{6-[1-Ethyl-3-(4-trifluoromethoxyphenyl)ureido]-3-bromo-5,6,7,8-tetrahydronaphthalen-2-ylsulfanyl}-2-methylpropionic acid]
45 |  |  |  | > 3000 | CCN(C(=O)Nc1ccc(OC(F)(F)F)cc1)C1CCc2cc(SC(C)(C)C(=O)O)c(OC)cc2C1 (centres unmarked) [Example 47, 2-{6-[1-Ethyl-3-(4-trifluoromethoxyphenyl)ureido]-3-methoxy-5,6,7,8-tetrahydronaphthalen-2-ylsulfanyl}-2-methylpropionic acid]
42 |  |  |  | 873 | CCN(C(=O)Nc1ccc(OC(F)(F)F)cc1)C1CCc2cc(SC(C)(C)C(=O)O)c(C)cc2C1 (centres unmarked) [Example 53, 2-{6-[1-Ethyl-3-(4-trifluoromethoxyphenyl)ureido]-3-methyl-5,6,7,8-tetrahydronaphthalen-2-ylsulfanyl}-2-methylpropionic acid]
